Measurements from US20110195911A1, “SYNTHETIC ANALOGS OF THE JUXTAMEMBRANE DOMAIN OF IGF1R AND USES THEREOF” (THE UNITED STATES OF AMERICA,AS REPRESENTED BY THE …, priority 2008, published 2011).
Where a SMILES comes first, the peptide text is derived from it. The star is where a group is joined. Palmitoyl = CCCCCCCCCCCCCCCC(=O)*

System: MCF-7 breast cancer cells
Assay: MTT cell toxicity assay in MCF-7 breast cancer cells
Assay type: cell-based
Settings: for GI50 / TGI / growth inhibition / potency in MCF-7 cells (in words): MCF-7 cells, MTT; for GI50 / TGI: final 0.5% FBS, two days with compound; for TGI: concentration of total growth inhibition (cytostatic); for growth inhibition / potency in MCF-7 cells (in words): comparison with related peptides; for improvement of potency: N-terminal truncation, relative to peptide 12/3
Protocol: Cell Toxicity Assays: MCF-7 (breast cancer), T47D (breast cancer), Colo 205 (colon cancer), JM-1 (rat hepatoma), Sk Me1-2 (melanoma), PLC (human hepatoma), and HepG2 (human hepatoma) cells were obtained from American Type Cell Culture Collection. MCF-7 cells were grown in RPMI medium supplemented with 10% Fetal Bovine Serum. The rest of the cell lines were grown in DMEM medium supplemented with 10% Fetal Bovine Serum.
MTT 43-(4,5-Dimethylthiazol-2-yl)-2,5-diphenyltetrazolium) cell assay was performed using MCF-7 breast cancer cells. For the assay, cells were seeded into 96 well plates in medium containing 1% Fetal Bovine Serum and 100 μL of a cell suspension containing 5000 cells per well. Wells containing medium-only, and wells containing untreated cells, served as controls.
Seeded cells were allowed to attach and grow in the wells for 24 hours. A 5 mM stock solution of each peptide was made by dissolving approximately 1 mg of peptide in appropriate amount of DMSO. 2 mL dilutions were used to make 0.2 μM, 1.0 μM, 5.0 μM, and 10.0 μM concentration solutions of the compounds in serum-free medium. 100 μl, of the resulting 2× solutions were added to the corresponding wells to provide a final FBS concentration of 0.5% and 0.1 μM, 0.5 μM, 2.5 μM, and 5.0 μM dilutions of inhibitors. The cells were incubated with test compounds for two days. The control wells were given 100 μL of medium to ensure maximum similarity to the test wells so that all of the wells had 200 μL of medium during the growth period. An individual plate was made for Time Zero, to which the dye was added at the time of addition of compounds.
An alternative potency assay was used to test compounds in MCF-7 (breast cancer), T47D (breast cancer), Colo 205 (colon cancer), JM-1 (rat hepatoma), Sk MeI-2 (melanoma), PLC (human hepatoma), and HepG2 (human hepatoma) cells. Cells were suspended at a concentration of approximately 5000 cells per 100 μL of suspension in a 5% FBS RPMI medium. The cells were seeded into 96-count wells and incubated over night. After one day's incubation, the 5% FBS medium was aspirated and replaced with 100 μL of no serum RPMI medium containing 1 mg Bovine Serum Albumin (BSA) per 1 mL RPMI. Various concentrations of the test compounds were prepared by dilution in no-serum medium containing 1 mg BSA/mL. 75 μL of the test compound solutions were added to the wells, and the cells were allowed to incubate for 15-20 minutes, after which time 25 μL of human recombinant IGF-1 (Peprotech) solution was added to the wells to attain final concentrations of 10 ng IGF-1/mL medium. The control wells were given 175 μL of no-serum medium in addition to 25 μL of IGF-1 solution. An individual plate was made for time zero, in which the medium was also aspirated and replaced with 175 μL of no-serum medium and 25 μL of IGF-1. 15 μL of MTT dye was added and let incubate for 4 hours, after which time a stop stop solubilization solution was added. The stop solution lysed the cells and released the dye reduced by the remaining living cells. Absorbance of the wells at 544 nm was determined by a FLUOstar/POLARstar Galaxy (BMG Lab Technologies GmbH) microplate reader. The activity was calculated from the data using the formula: 100×[(T−T0)/(C−T0)] for T>T0 and 100×[(T−T0)/T0] for T<T0, wherein T0 corresponds to cell density at the time of drug addition, “T” is the optical density of the test well after a 48-h period of exposure to test drug, and “C” is the control optical density. The GI50 measures the growth inhibitory power of the test agent, and is defined as the concentration of test drug where 100×(T−T0)/(C−T0)=50. The TGI is the concentration of test drug where 100×(T−T0)/(C−T0)=0. Thus, the TGI signifies a cytostatic effect.

Row | SMILES | GI50 [nM] | TGI [nM] | growth inhibition / potency in MCF-7 cells (in words) | improvement of potency (MCF-7) | increase in toxicity (MCF-7, relative to peptide 3) [fold]
1 | CCCCCCCCCCCCCCCC(=O)N[C@@H](CCCNC(=N)N)C(=O)N[C@@H](CCCCN)C(=O)N[C@@H](CCCNC(=N)N)C(=O)N[C@@H](CC(N)=O)C(=O)N[C@@H](CC(N)=O)C(=O)N[C@@H](CO)C(=O)N[C@@H](CCCNC(=N)N)C(=O)N[C@@H](CC(C)C)C(=O)NCC(=O)N[C@@H](CC(N)=O)C(=O)NCC(=O)N[C@H](C(=O)N[C@@H](CC(C)C)C(=O)N[C@@H](Cc1ccc(O)cc1)C(=O)N[C@@H](C)C(=O)N[C@@H](CO)C(=O)N[C@H](C(=O)N[C@@H](CC(N)=O)C(N)=O)C(C)C)C(C)C [Peptide 12, Pal-RKRNNSRLGNGVLYASVN-NH2] (Palmitoyl-RKRNNSRLGNGVLYASVN-NH2) | 1200 ± 100 | 2700 ± 300 | decreased activity slightly | – | –
2 | CCCCCCCCCCCCCCCC(=O)N[C@@H](CCCCN)C(=O)N[C@@H](CCCNC(=N)N)C(=O)N[C@@H](CC(N)=O)C(=O)N[C@@H](CC(N)=O)C(=O)N[C@@H](CO)C(=O)N[C@@H](CCCNC(=N)N)C(=O)N[C@@H](CC(C)C)C(=O)NCC(=O)N[C@@H](CC(N)=O)C(=O)NCC(=O)N[C@H](C(=O)N[C@@H](CC(C)C)C(=O)N[C@@H](Cc1ccc(O)cc1)C(=O)N[C@@H](C)C(=O)N[C@@H](CO)C(=O)N[C@H](C(=O)N[C@@H](CC(N)=O)C(N)=O)C(C)C)C(C)C [Peptide 13, Pal-KRNNSRLGNGVLYASVN-NH2] (Palmitoyl-KRNNSRLGNGVLYASVN-NH2) | 80 ± 7 | 500 ± 80 | – | more than ten-fold | 12.5
3 | CCCCCCCCCCCCCCCC(=O)N[C@@H](CCCNC(=N)N)C(=O)N[C@@H](CC(N)=O)C(=O)N[C@@H](CC(N)=O)C(=O)N[C@@H](CO)C(=O)N[C@@H](CCCNC(=N)N)C(=O)N[C@@H](CC(C)C)C(=O)NCC(=O)N[C@@H](CC(N)=O)C(=O)NCC(=O)N[C@H](C(=O)N[C@@H](CC(C)C)C(=O)N[C@@H](Cc1ccc(O)cc1)C(=O)N[C@@H](C)C(=O)N[C@@H](CO)C(=O)N[C@H](C(=O)N[C@@H](CC(N)=O)C(N)=O)C(C)C)C(C)C [Peptide 14, Pal-RNNSRLGNGVLYASVN-NH2] (Palmitoyl-RNNSRLGNGVLYASVN-NH2) | 100 ± 4 | 400 ± 20 | – | more than ten-fold | –
4 | CCCCCCCCCCCCCCCC(=O)N[C@@H](CC(N)=O)C(=O)N[C@@H](CC(N)=O)C(=O)N[C@@H](CO)C(=O)N[C@@H](CCCNC(=N)N)C(=O)N[C@@H](CC(C)C)C(=O)NCC(=O)N[C@@H](CC(N)=O)C(=O)NCC(=O)N[C@H](C(=O)N[C@@H](CC(C)C)C(=O)N[C@@H](Cc1ccc(O)cc1)C(N)=O)C(C)C [Peptide 15, Pal-NNSRLGNGVLY-NH2] (Palmitoyl-NNSRLGNGVLY-NH2) | 100 ± 10 | 1500 ± 50 | gradual reduction in potency | – | –
5 | CCCCCCCCCCCCCCCC(=O)N[C@@H](CCCNC(=N)N)C(=O)N[C@@H](CC(N)=O)C(=O)N[C@@H](CC(N)=O)C(=O)N[C@@H](CO)C(=O)N[C@@H](CCCNC(=N)N)C(=O)N[C@@H](CC(C)C)C(=O)NCC(=O)N[C@@H](CC(N)=O)C(=O)NCC(=O)N[C@H](C(=O)N[C@@H](CC(C)C)C(=O)N[C@@H](Cc1ccc(O)cc1)C(N)=O)C(C)C [Peptide 16, Pal-RNNSRLGNGVLY-NH2] (Palmitoyl-RNNSRLGNGVLY-NH2) | 70 ± 5 | 500 ± 20 | most potent derivative | – | –
6 | CCCCCCCCCCCCCCCC(=O)N[C@@H](CC(N)=O)C(=O)N[C@@H](CO)C(=O)N[C@@H](CCCNC(=N)N)C(=O)N[C@@H](CC(C)C)C(=O)NCC(=O)N[C@@H](CC(N)=O)C(=O)NCC(=O)N[C@H](C(=O)N[C@@H](CC(C)C)C(=O)N[C@@H](Cc1ccc(O)cc1)C(N)=O)C(C)C [Peptide 17, Pal-NSRLGNGVLY-NH2] (Palmitoyl-NSRLGNGVLY-NH2) | 200 ± 10 | 1500 ± 100 | gradual reduction in potency | – | –
